Values quoted from earlier work, collected in patent publication US10130658B2, “Method of ex vivo enhancement of immune cell activity for cancer immunotherapy with a small molecule ablative compound” (Provectus Pharmatech, Inc., priority 2015, dated 2018).

Legend:
[1] = tested on: tumor cells
[2] = tested on: Hela cells; settings: treated for 1 hour following photodynamic irradiation

SMILES	time to autolyse tumor cells ([1]; accumulates in lysosomes of tumor cells)	uptake into normal cells ([1]; normal cells)	HMGB1 release [2]
O=C1OC2(c3cc(I)c(O)c(I)c3Oc3c2cc(I)c(O)c3I)c2c(Cl)c(Cl)c(Cl)c(Cl)c21 [RB, 4,5,6,7-tetrachloro-2′,4′,5′,7′-tetraiodofluorescein]	30 to 60 min	excluded	
CC(=O)Oc1c(I)cc2c(c1I)Oc1c(cc(I)c(OC(C)=O)c1I)C21OC(=O)c2c(Cl)c(Cl)c(Cl)c(Cl)c21 [rose bengal acetate]			passively released
